Calls of active or inactive are those of the source. The calls are words filed in the database; no cut-off is given here. Numbered stars: 1 amine (or outer) side, 2 acyl side, 3 side chain; on linkers, the order of the positions; unused ones are H or OH. Bridge positions count the residues as written; N and C are the ends. Square brackets hold non-standard residues; d marks the D form. Peptide text beside a SMILES is read from it. I, II: the chains in the order shown. Actinocin(9to1) = Cc1c2oc3c(C)ccc(C(=O)[*:1])c3nc-2c(C(=O)[*:2])c(N)c1=O; NMeV = CN[C@H](C(=O)O)C(C)C; Sar = CNCC(=O)O
What was measured:
[1] = target: T1, Tumor necrosis factor receptor superfamily member 1B (Homo sapiens, UniProt P20333); test: Competitive Inhibition of TNF-alpha binding to human recombinant TNFR2 incubated for 1 hr by ELISA analysis
T1 sequence (P20333 whole entry): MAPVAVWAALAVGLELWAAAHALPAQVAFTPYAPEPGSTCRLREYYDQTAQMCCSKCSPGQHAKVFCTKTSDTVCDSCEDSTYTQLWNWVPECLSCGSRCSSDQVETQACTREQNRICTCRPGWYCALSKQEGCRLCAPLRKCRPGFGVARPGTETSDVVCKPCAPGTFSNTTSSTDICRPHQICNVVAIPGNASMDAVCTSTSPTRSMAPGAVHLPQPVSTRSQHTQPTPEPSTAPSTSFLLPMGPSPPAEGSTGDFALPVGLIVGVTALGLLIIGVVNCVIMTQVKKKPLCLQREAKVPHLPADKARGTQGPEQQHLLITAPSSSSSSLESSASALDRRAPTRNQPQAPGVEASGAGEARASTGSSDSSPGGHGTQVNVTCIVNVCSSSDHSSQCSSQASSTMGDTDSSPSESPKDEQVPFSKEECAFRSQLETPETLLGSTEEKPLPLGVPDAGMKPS

[2] = test system: L929; test: Cytotoxicity against TNF-alpha induced mouse L929 cells assessed as increase in cell survival pretreated for 12 hrs followed by TNF-alpha induction and measured after 18 to 20 hrs by MTT assay; assay type: toxicity, cell-based
[3] = test system: HT-29; test: Antiinflammatory activity in human HT-29 cells assessed as downregulation of TNF-alpha-induced ICAM mRNA expression incubated for 6 hrs by RT-PCR analysis; assay type: functional, cell-based; details: dose 15-20 µM
[4] = test system: HEK293-A; test: Inhibition of TNF-alpha induced MAPK activation in HEK293-A cells incubated for 15 mins by Western blot analysis; assay type: cell-based; details: Homo sapiens, dose 15-120 µM
[5] = target: Transcription factor p65 (Homo sapiens) (UniProt Q04206); test: Inhibition of TNF-alpha induced NF-kappaB p65 nuclear translocation in human HaCaT cells at 120 uM incubated for 10 mins DAPI staining based fluorescence microscopic analysis; assay type: cell-based
[6] = test system: HT-29; test: Antiinflammatory activity in human HT-29 cells assessed as downregulation of TNF-alpha-induced IFN-gamma mRNA expression incubated for 6 hrs by RT-PCR analysis; assay type: functional, cell-based; details: dose 15-20 µM
[7] = test system: HEK293-A; test: Inhibition of TNF-alpha induced MAPK activation in HEK293-A cells assessed as decrease in phosphorylated p38 expression at 15 to 120 uM incubated for 15 mins by Western blot analysis; assay type: cell-based; details: Homo sapiens, dose 15-120 µM
[8] = target: T2, Nuclear factor NF-kappa-B complex (Homo sapiens) (UniProt Q00653+P19838+Q04206); test: Inhibition of TNF-alpha induced NF-kappaB activation in HEK293-A cells at 15 to 120 uM by Western blot analysis; assay type: cell-based; details: dose 15-120 µM, time 15.0 min, TDE = time-dependent effect
[9] = target: T3, Tumor necrosis factor receptor superfamily member 1A (Homo sapiens, UniProt P19438); test: Competitive Inhibition of TNF-alpha binding to human recombinant TNFR1 incubated for 1 hr by ELISA analysis
T3 sequence (P19438 whole entry): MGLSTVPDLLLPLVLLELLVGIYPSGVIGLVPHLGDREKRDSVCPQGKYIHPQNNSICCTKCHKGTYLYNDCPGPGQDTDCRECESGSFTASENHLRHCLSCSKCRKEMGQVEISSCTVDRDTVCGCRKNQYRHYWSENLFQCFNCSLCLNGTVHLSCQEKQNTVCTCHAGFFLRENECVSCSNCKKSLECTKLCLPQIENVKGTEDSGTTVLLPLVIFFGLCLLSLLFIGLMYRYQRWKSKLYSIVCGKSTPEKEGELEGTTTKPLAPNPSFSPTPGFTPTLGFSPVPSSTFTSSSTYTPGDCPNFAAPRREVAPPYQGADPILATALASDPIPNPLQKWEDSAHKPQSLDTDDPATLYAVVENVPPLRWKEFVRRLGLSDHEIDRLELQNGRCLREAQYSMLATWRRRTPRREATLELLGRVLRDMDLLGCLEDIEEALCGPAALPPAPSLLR

[10] = target: T2, Nuclear factor NF-kappa-B complex (Homo sapiens); test: Inhibition of TNF-alpha induced NF-kappaB activation in HEK293-A cells assessed as decrease in phosphorylated IkappaB level at 15 to 120 uM incubated for 15 mins by Western blot analysis; assay type: cell-based; details: dose 15-120 µM
[11] = target: Transcription factor p65 (Homo sapiens) (UniProt Q04206); test: Inhibition of TNF-alpha induced NF-kappaB p65 nuclear translocation in human HaCaT cells at 30 to 120 uM incubated for 10 mins DAPI staining based fluorescence microscopic analysis; assay type: cell-based; details: dose 30-120 µM
[12] = test system: HT-29; test: Antiinflammatory activity in human HT-29 cells assessed as downregulation of TNF-alpha-induced IL-1beta mRNA expression incubated for 6 hrs by RT-PCR analysis; assay type: functional, cell-based; details: dose 15-20 µM
[13] = test system: HEK293-A; test: Inhibition of TNF-alpha induced MAPK activation in HEK293-A cells at 15 to 120 uM by Western blot analysis; assay type: cell-based; details: Homo sapiens, dose 15-120 µM, time 15.0 min, TDE = time-dependent effect
[14] = test system: HT-29; test: Antiinflammatory activity in human HT-29 cells assessed as downregulation of TNF-alpha-induced IL-8 mRNA expression incubated for 6 hrs by RT-PCR analysis; assay type: functional, cell-based; details: dose 15-20 µM
[15] = target: T2, Nuclear factor NF-kappa-B complex (Homo sapiens); test: Inhibition of TNF-alpha induced NF-kappaB activation in HEK293-A cells incubated for 15 mins by Western blot analysis; assay type: cell-based; details: dose 15-120 µM
[16] = test system: HEK293-A; test: Inhibition of TNF-alpha induced MAPK activation in HEK293-A cells assessed as decrease in phosphorylated ERK expression at 15 to 120 uM incubated for 15 mins by Western blot analysis; assay type: cell-based; details: Homo sapiens, dose 15-120 µM
[17] = test system: HEK293-A; test: Inhibition of TNF-alpha induced MAPK activation in HEK293-A cells assessed as decrease in phosphorylated JNK expression at 15 to 120 uM incubated for 15 mins by Western blot analysis; assay type: cell-based; details: Homo sapiens, dose 15-120 µM
[18] = test system: L929; test: Cytotoxicity against TNF-alpha induced mouse L929 cells assessed as increase in cell survival pretreated for 12 hrs followed by TNF-alpha induction and measured after 20 hrs by MTT assay; assay type: toxicity, cell-based; details: l929, 32 h

T2 sequence (P19838 whole entry, looked up): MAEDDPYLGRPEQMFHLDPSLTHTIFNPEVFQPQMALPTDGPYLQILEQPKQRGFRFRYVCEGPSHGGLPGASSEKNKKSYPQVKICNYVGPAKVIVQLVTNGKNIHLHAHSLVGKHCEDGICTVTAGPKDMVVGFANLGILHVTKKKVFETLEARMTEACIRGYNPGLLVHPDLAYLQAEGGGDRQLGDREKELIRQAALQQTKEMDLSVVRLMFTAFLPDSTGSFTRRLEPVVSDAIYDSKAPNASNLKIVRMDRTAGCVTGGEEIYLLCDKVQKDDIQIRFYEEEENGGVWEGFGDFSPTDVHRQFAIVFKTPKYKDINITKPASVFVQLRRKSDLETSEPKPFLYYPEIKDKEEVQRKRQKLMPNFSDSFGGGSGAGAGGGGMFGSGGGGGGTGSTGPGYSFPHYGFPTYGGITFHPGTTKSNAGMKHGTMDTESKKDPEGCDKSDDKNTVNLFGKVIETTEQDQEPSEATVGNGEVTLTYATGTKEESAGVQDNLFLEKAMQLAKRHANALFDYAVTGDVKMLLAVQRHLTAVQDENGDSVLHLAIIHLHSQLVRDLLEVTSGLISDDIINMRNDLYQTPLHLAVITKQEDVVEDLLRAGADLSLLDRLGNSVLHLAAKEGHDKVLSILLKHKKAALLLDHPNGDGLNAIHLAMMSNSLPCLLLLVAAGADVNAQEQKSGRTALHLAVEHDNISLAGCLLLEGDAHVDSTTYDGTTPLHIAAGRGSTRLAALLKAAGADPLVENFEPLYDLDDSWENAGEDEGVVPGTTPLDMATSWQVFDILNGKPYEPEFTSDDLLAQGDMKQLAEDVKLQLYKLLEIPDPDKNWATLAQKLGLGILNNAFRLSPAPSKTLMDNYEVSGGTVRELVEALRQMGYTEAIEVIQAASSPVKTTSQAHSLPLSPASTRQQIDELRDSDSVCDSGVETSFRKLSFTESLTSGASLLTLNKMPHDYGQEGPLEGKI
T2 sequence (Q00653 whole entry, looked up): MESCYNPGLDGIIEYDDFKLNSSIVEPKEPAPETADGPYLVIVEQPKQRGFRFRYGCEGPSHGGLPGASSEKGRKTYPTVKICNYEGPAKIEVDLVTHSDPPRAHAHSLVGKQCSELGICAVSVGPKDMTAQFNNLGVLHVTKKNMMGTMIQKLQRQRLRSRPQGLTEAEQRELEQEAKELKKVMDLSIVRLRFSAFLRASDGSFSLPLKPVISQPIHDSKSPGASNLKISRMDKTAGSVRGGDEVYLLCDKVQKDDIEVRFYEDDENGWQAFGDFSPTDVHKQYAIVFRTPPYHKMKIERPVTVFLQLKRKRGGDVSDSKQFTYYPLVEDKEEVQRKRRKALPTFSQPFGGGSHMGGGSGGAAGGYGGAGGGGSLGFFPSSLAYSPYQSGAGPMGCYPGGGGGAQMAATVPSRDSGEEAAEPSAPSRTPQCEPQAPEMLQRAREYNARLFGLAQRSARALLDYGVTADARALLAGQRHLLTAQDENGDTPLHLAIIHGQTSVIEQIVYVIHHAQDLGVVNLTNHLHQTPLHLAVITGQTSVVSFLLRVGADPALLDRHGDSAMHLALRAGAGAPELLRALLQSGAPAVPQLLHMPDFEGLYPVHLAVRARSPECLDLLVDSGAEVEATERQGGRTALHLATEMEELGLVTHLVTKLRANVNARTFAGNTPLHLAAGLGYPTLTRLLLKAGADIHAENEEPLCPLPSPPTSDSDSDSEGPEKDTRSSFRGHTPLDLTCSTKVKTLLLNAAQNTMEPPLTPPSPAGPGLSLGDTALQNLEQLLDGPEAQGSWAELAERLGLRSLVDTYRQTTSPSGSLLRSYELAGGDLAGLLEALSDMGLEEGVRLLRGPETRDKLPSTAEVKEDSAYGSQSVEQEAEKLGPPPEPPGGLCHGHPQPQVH
T2 sequence (Q04206 whole entry, looked up): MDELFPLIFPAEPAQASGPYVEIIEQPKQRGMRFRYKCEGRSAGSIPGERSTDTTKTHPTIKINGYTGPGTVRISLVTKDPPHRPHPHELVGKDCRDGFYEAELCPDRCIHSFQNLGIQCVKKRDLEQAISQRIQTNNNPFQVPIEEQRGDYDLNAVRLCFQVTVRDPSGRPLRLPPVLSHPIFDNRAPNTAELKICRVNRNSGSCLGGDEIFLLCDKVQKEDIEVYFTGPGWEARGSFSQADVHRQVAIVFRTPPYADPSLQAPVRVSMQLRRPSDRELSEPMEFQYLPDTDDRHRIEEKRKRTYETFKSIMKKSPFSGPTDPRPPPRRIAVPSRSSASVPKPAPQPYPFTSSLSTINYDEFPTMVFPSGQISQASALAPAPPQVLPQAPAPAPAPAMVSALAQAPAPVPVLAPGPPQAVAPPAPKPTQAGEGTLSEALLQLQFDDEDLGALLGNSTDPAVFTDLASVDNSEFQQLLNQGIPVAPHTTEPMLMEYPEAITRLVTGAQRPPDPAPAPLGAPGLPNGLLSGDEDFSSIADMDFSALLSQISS
Chain of Transcription factor p65 (Homo sapiens) (Q04206 whole entry): as the sequence (Q04206 whole entry, looked up) above

Molecule	EC50 [1] [µM]	IC50 [2] [µM]	Activity [3]	inhibition [4]	inhibition [5]	Activity [6]	inhibition [7]	inhibition [8]	EC50 [9] [µM]	inhibition [10]	inhibition [11]	Activity [12]	inhibition [13]	Activity [14]	inhibition [15]	inhibition [16]	inhibition [17]	Activity [18] [%]
H-DEFHLELHLYQSW-OH	17	15.4	Dose-Dependent Effect	Dose-Dependent Effect	Active	Dose-Dependent Effect	Active	Tde	7.25	Active	Active	Dose-Dependent Effect	Tde	Dose-Dependent Effect	Dose-Dependent Effect	Active	Active	–
Cc1c2oc3c(C)ccc(C(=O)N[C@@H]4C(=O)N[C@H](C(C)C)C(=O)N5CCC[C@H]5C(=O)N(C)CC(=O)N(C)[C@@H](C(C)C)C(=O)O[C@@H]4C)c3nc-2c(C(=O)N[C@@H]2C(=O)N[C@H](C(C)C)C(=O)N3CCC[C@H]3C(=O)N(C)CC(=O)N(C)[C@@H](C(C)C)C(=O)O[C@@H]2C)c(N)c1=O [DACTINOMYCIN] (I: T[dV]P[Sar][NMeV] / II: T[dV]P[Sar][NMeV]; ester I:1-I:C, II:1-II:C; linker I:N-II:N via Actinocin(9to1))	–	–	–	–	–	–	–	–	–	–	–	–	–	–	–	–	–	70

Reference: ChEMBL document CHEMBL5325507, “A TNF-α blocking peptide that reduces NF-κB and MAPK activity for attenuating inflammation” (Bioorg Med Chem, 2023)
